Data on 10 compounds can be found in ChEMBL document CHEMBL5058564, “EUbOPEN Chemogenomics Library 2 (Incucyte)” (2022).

What all share (format): toxicity, cell-based
Data set [1] deals with Fibroblast. The experiment in a line: Incucyte cell viability with human fibroblast. The settings on record: 10 µM, compound concentration 10 uM.
In data set [2] the test system is U2OS. Briefly: Incucyte cell viability with U2OS. To be noted: human, 10 µM, compound concentration 10 uM.
For data set [3], the system named is HEK-293T. Briefly: Incucyte cell viability with HEK293T. To be noted: human, 10 µM, compound concentration 10 uM.
Setting [4] is: 0 h, replicate number 2, timepoint 0 hours.
The mark [5] stands for this setting: 6 h, replicate number 1, timepoint 6 hours.
[6] abbreviates: 12 h, replicate number 1, timepoint 12 hours.
Where [7] appears, read: 18 h, replicate number 1, timepoint 18 hours.
The mark [8] stands for this setting: 24 h, replicate number 1, timepoint 24 hours.
The mark [9] stands for this setting: 0 h, replicate number 1, timepoint 0 hours.
Where [10] appears, read: 12 h, replicate number 2, timepoint 12 hours.
Where [11] appears, read: 6 h, replicate number 2, timepoint 6 hours.
The mark [12] stands for this setting: 18 h, replicate number 2, timepoint 18 hours.
The mark [13] stands for this setting: 24 h, replicate number 2, timepoint 24 hours.
Also: unitless GR value; below 1 slowed growth and below 0 cell loss.

In the case of `CCN1C(=CC(C)=O)Sc2ccc(OC)cc21`, the “Growth Rate” value in data set [1] (setting [4]) is 0.29; in data set [1] (setting [5]) it was -0.68; in data set [1] (setting [6]), 0.45; in data set [1] (setting [7]), 0.69; in data set [1] (setting [8]), 0.7; in data set [2] (setting [9]), -0.04. In addition, the “Growth Rate” value in data set [2] (setting [4]) is -0.03; in data set [2] (setting [5]) it was 0.65; in data set [2] (setting [6]), 0.7; in data set [2] (setting [10]), 0.88; in data set [2] (setting [7]), 0.63; in data set [2] (setting [8]), 0.89. Also, the “Growth Rate” value is given as -1 in data set [3] (setting [4]); 0.17 in data set [3] (setting [5]); 0.45 in data set [3] (setting [6]); 0.69 in data set [3] (setting [7]); 0.72 in data set [3] (setting [8]).

In the case of `CC[C@H]1OC(=O)[C@H](C)[C@@H](O[C@H]2C[C@@](C)(OC)[C@@H](O)[C@H](C)O2)[C@H](C)[C@@H](O[C@@H]2O[C@H](C)C[C@H](N(C)C)[C@H]2O)[C@@]2(C)CC(C)=C(O2)[C@H](C)[C@@H](O)[C@]1(C)O`, the “Growth Rate” value in data set [1] (setting [5]) was found to be 0.46; in data set [1] (setting [11]), 0.95; in data set [1] (setting [6]), 0.38; in data set [1] (setting [10]) it was 0.44; in data set [1] (setting [7]), 0.44; in data set [1] (setting [8]) it was 0.64. Besides, the “Growth Rate” value is given as 0.96 in data set [2] (setting [12]); 0.55 in data set [3] (setting [11]); 0.77 in data set [3] (setting [10]); 0.75 in data set [3] (setting [12]); 0.82 in data set [3] (setting [13]).

For `CCCCC(=O)N(Cc1ccc(-c2ccccc2-c2nnn[nH]2)cc1)[C@H](C(=O)O)C(C)C`, the “Growth Rate” value was 0.94 in data set [1] (setting [4]); 0.44 in data set [1] (setting [11]); 0.96 in data set [1] (setting [10]); -0.99 in data set [2] (setting [4]); 0.76 in data set [2] (setting [5]); 0.99 in data set [2] (setting [10]). For the same compound, the “Growth Rate” value worked out at 0.92 in data set [2] (setting [12]); 0.85 in data set [3] (setting [4]); 0.44 in data set [3] (setting [5]); 0.43 in data set [3] (setting [11]); 0.75 in data set [3] (setting [6]); 0.94 in data set [3] (setting [10]). The figures for the “Growth Rate” value in data set [3] (setting [7]) and in data set [3] (setting [8]) were 0.6 and 0.8, respectively.

For the compound `OCCN1CCN(CCCN2c3ccccc3Sc3ccc(Cl)cc32)CC1` [PERPHENAZINE], the “Growth Rate” value in data set [1] (setting [5]) is on record as -0.61; in data set [1] (setting [11]) it was 0.55; in data set [1] (setting [6]), -0.48; in data set [1] (setting [10]), 0.42; in data set [1] (setting [7]), -0.34; in data set [1] (setting [12]), 0.44. Moreover, the “Growth Rate” value in data set [1] (setting [8]) is on record as -0.08; in data set [1] (setting [13]), 0.53; in data set [2] (setting [11]), 0.28; in data set [2] (setting [6]), 0.85; in data set [2] (setting [10]), 0.55; in data set [2] (setting [12]) it was 0.64. Moreover, the “Growth Rate” value in data set [2] (setting [8]) is recorded as 1; in data set [2] (setting [13]), 0.69; in data set [3] (setting [5]), 0.12; in data set [3] (setting [11]), 0.25; in data set [3] (setting [6]) it was 0.59; in data set [3] (setting [10]), 0.45. Besides, the “Growth Rate” value is listed as 0.76 in data set [3] (setting [7]), 0.67 in data set [3] (setting [12]), 0.41 in data set [3] (setting [8]) and 0.76 in data set [3] (setting [13]).

As to `CSCC[C@H](NC=O)C(=O)N[C@@H](CC(C)C)C(=O)N[C@@H](Cc1ccccc1)C(=O)O`, the “Growth Rate” value in data set [1] (setting [9]) is 0.43; in data set [1] (setting [4]) it was 0.65; in data set [1] (setting [5]), 0.81; in data set [1] (setting [11]), 0.42; in data set [1] (setting [6]) it was 0.83; in data set [1] (setting [10]) it was 0.46. The “Growth Rate” value is recorded as 0.58 in data set [1] (setting [7]); 0.69 in data set [1] (setting [12]); 0.27 in data set [1] (setting [8]); 0.36 in data set [1] (setting [13]); 0.44 in data set [2] (setting [11]); 0.83 in data set [2] (setting [10]). For the same compound, the “Growth Rate” value is recorded as 0.92 in data set [2] (setting [12]); 0.97 in data set [2] (setting [13]); 0.95 in data set [3] (setting [9]); 0.68 in data set [3] (setting [4]); 0.85 in data set [3] (setting [11]); 1 in data set [3] (setting [6]). The “Growth Rate” value in data set [3] (setting [10]) is recorded as 0.9; in data set [3] (setting [7]), 0.78; in data set [3] (setting [8]) it was 0.82.

In the case of `O=C(O)C(F)(F)F.O=C1NC(=O)/C(=C/c2c[nH]c(=O)c(-c3ccc(N4CCNCC4)nc3)c2)S1`, the “Growth Rate” value in data set [1] (setting [9]) is on record as 0.44; in data set [1] (setting [11]) it was 0.04; in data set [1] (setting [10]), 0.66; in data set [1] (setting [12]) it was 0.64; in data set [1] (setting [13]), 0.71; in data set [2] (setting [9]), -0.39. Also, the “Growth Rate” value in data set [2] (setting [4]) is reported as -1; in data set [2] (setting [5]), 0.45; in data set [2] (setting [6]), 0.51; in data set [2] (setting [7]), 1; in data set [2] (setting [13]), 0.94; in data set [3] (setting [9]), 0.87. For the same compound, the “Growth Rate” value in data set [3] (setting [4]) was found to be 0.65; in data set [3] (setting [11]), 0.18; in data set [3] (setting [10]) it was 0.7; in data set [3] (setting [12]), 0.92.

In the case of `Cc1ccc(-c2ccc(F)cc2COc2ccc(CCC(=O)O)cc2)cc1`, the “Growth Rate” value is 0.45 in data set [1] (setting [4]); 0.23 in data set [1] (setting [5]); 0.58 in data set [1] (setting [6]); 0.18 in data set [1] (setting [7]); 0.42 in data set [1] (setting [8]); -0.34 in data set [2] (setting [9]). For the same compound, the “Growth Rate” value in data set [2] (setting [4]) is on record as -0.59; in data set [3] (setting [9]), 0.43; in data set [3] (setting [4]), 0.55.

Turning to `CC(=O)Nc1cccc2c1c(Sc1ccc(Cl)cc1)c(C)n2CC(=O)O` [AZD1981], the “Growth Rate” value in data set [1] (setting [4]) is given as 0.38; in data set [1] (setting [5]), 0.15; in data set [1] (setting [11]) it was 0.04; in data set [1] (setting [6]), 0.35; in data set [1] (setting [10]), 0.14; in data set [1] (setting [12]) it was 0.25. Moreover, the “Growth Rate” value amounted to 0.73 in data set [1] (setting [8]); 0.26 in data set [1] (setting [13]); 0.93 in data set [2] (setting [11]); 0.89 in data set [2] (setting [12]); 0.95 in data set [2] (setting [13]); 0.75 in data set [3] (setting [4]). For the same compound, the “Growth Rate” value was found to be 0.62 in data set [3] (setting [5]), 0.62 in data set [3] (setting [6]), 0.83 in data set [3] (setting [7]) and 0.71 in data set [3] (setting [8]).

On to `CCC(C)n1ncn(-c2ccc(N3CCN(c4ccc(OC[C@@H]5CO[C@@](Cn6cncn6)(c6ccc(Cl)cc6Cl)O5)cc4)CC3)cc2)c1=O.CCC(C)n1ncn(-c2ccc(N3CCN(c4ccc(OC[C@H]5CO[C@](Cn6cncn6)(c6ccc(Cl)cc6Cl)O5)cc4)CC3)cc2)c1=O` (some centres not stated), for which the “Growth Rate” value in data set [1] (setting [9]) is recorded as 0.6; in data set [1] (setting [4]), -0.02; in data set [1] (setting [13]), 0.95; in data set [2] (setting [9]) it was -0.09; in data set [2] (setting [8]), 0.73; in data set [2] (setting [13]), 0.94. Besides, the “Growth Rate” value in data set [3] (setting [5]) is listed as -0.37; in data set [3] (setting [11]) it was 0.11; in data set [3] (setting [6]) it was -0.28; in data set [3] (setting [10]) it was 0.15; in data set [3] (setting [7]), 0.44; in data set [3] (setting [12]) it was 0.02. The “Growth Rate” value is on record as -0.08 in data set [3] (setting [8]) and 0.33 in data set [3] (setting [13]).

Consider `OCCCNc1cc(-c2ccnc(Nc3cccc(Cl)c3)n2)ccn1`, for which the “Growth Rate” value is recorded as -0.42 in data set [1] (setting [9]); -0.55 in data set [1] (setting [4]); -0.19 in data set [1] (setting [5]); 0.11 in data set [1] (setting [11]); -0.15 in data set [1] (setting [6]); -0.06 in data set [1] (setting [10]). Moreover, the “Growth Rate” value was -0.2 in data set [1] (setting [7]); -0.09 in data set [1] (setting [12]); -0.02 in data set [1] (setting [8]); -0.06 in data set [1] (setting [13]); -0.27 in data set [2] (setting [9]); -0.28 in data set [2] (setting [4]). Further, the “Growth Rate” value is listed as 0.44 in data set [2] (setting [5]); 0.44 in data set [2] (setting [6]); 0.56 in data set [2] (setting [10]); 0.26 in data set [2] (setting [7]); 0.36 in data set [2] (setting [12]); 0.23 in data set [2] (setting [8]). Besides, the “Growth Rate” value is given as 0.24 in data set [2] (setting [13]); -0.65 in data set [3] (setting [5]); -0.7 in data set [3] (setting [11]); -0.52 in data set [3] (setting [6]); -0.62 in data set [3] (setting [10]); -0.38 in data set [3] (setting [7]). In addition, the entries for the “Growth Rate” value in data set [3] (setting [12]), in data set [3] (setting [8]) and in data set [3] (setting [13]) were -0.46, -0.29 and -0.38, respectively.
